What was measured:
C2C12 myotubes = assay: IL-6 expression and release and AMPK phosphorylation in cultured C2C12 myotubes; assay type: cell-based; conditions: 100 nM of each lipid mediator vs vehicle
Protocol: C2C12 myoblasts were maintained in DMEM containing 10% FBS. Differentiation to myotubes was initiated by addition of DMEM containing 2% horse serum. The experiment was conducted 5 days after the addition of the differentiation media. Immediately prior to the commencement of experiments fresh media was added to the cells. Then vehicle or PDX (10, 100, and 1000 nM) was added to the appropriate wells. 30 and 120 minutes after the addition of PDX media was collected and frozen for IL-6 quantification and cells were washed in ice cold PBS. For extraction of mRNA cells were then lysed and scraped in 300 μl of RLT buffer (QIAGEN). For examination of AMPK activity cells were lysed and scraped in 200 μl of ice cold lysis buffer containing 50 mM HEPES pH7.5, 150 mM NaCl, 1 mM EGTA, 20 mM b-glycerophosphate, 1% NP40, 10 mM NaF, 2 mM Na3VO4, 1× protease inhibitor cocktail (Sigma).
Snap frozen gastrocnemius muscle and liver from mice were pulverized in liquid nitrogen then lysed overnight at 4° C. in the lysis buffer described for the C2C12 myotube experiments. Immunoblotting of myotube, macrophage, liver and muscle lysates was then performed as previously described^5. Briefly, 50 ug of protein was loaded onto a 7.5% acrylamide gel, subjected to SDS-PAGE then transferred onto nitrocellulose membranes. Membranes were then blocked and probed with the appropriate antibodies. Antibodies for p-Akt ser473, p-JNK thr183/tyr185, JNK, p-AMPK thr172, AMPK, p-STAT-3 ser727 and STAT-3 were obtained from Cell Signaling Technology (MA, USA). Antibodies for total Akt and iNOS were from Santa Cruz Biotechnology (CA, USA) and BD Transduction Laboratories™ (Canada) respectively.
RNA was extracted from C2C12 myotubes using an RNeasy® mini kit from QIAGEN. RNA from homogenized liver tissue was extracted using an RNeasy® fibrous tissue mini kit from QIAGEN. RNA was then reverse transcribed to cDNA using the high-capacity cDNA reverse transcription kit from applied biosystems. Real-time PCR for Ppargc1, Pck1, G6Pc, and GAPDH was then performed using Taqman assay on demand probes and primers from Applied Biosystems in a CFX96 real-time system from BIO-RAD. The relative expression of genes of interest was then determined by normalization to the housekeeping gene GAPDH using the comparative CT method for relative gene expression^30.
Chemokines and cytokines were quantified in macrophage media, or mouse plasma using the MILLIPLEX™ MAP mouse cytokine/chemokine kit (Millipore Corporation, MA, USA). Nitrite accumulation in media was determined by Greiss assay as previously described^25. Plasma insulin levels were assessed by RIA (Linco, MI, USA). FFA were measured using an enzymatic colorimetric assay (Wako Chemicals, VA, USA). Skeletal muscle and liver IL-6 were quantified using the mouse IL-6 ELISA kit from R&D systems. Total plasma adiponectin was determined using the ELISA from ALPCO.

T37i brown adipocytes = assay: IL-6 release from cultured brown adipocytes; assay type: cell-based; conditions: norepinephrine 1 μM as adrenergic stimulus
Source text: Since brown adipose tissue was recently shown to regulate glucose homeostasis via secretion of IL-6^20 we also examined whether PDX might raise circulating IL-6 by stimulating brown fat.

CC/C=C\C[C@H](O)\C=C/C=C/C=C/[C@H](O)C/C=C\C/C=C\CCC(=O)O [PD1, 10R,17S-dihydroxy-docosa-4Z,7Z,11E,13E,15Z,19Z-hexaenoic acid, reference compound]
IL-6 release from muscle cells (C2C12 myotubes): not present

NC[C@H](O)c1ccc(O)c(O)c1 [norepinephrine, reference compound]
release of IL-6 (T37i brown adipocytes): released IL-6

CCCCCC(O)/C=C/C=C\C=C\[C@@H](O)C/C=C\CCCC(=O)O (stereo partly drawn) [8(S),17(S)DiHETE, 8S,15S-dihydroxy-5Z,9E,11Z,13E-eicosatetraenoic acid, reference compound]
IL-6 release from muscle cells (C2C12 myotubes): not present

CC/C=C\CC(O)/C=C/C=C\C=C\C=C\C(O)[C@@H](O)C/C=C\CCC(=O)O (stereo partly drawn) [RvD1, 7S,8R,17S-trihydroxy-4Z,9E,11E,13Z,15E,19Z-docosahexaenoic acid, reference compound]
IL-6 release from muscle cells (C2C12 myotubes): not present
